Bridge positions count the residues as written; N and C are the ends. Square brackets hold non-standard residues; d marks the D form. Peptide text beside a SMILES is read from it. R8 = C=CCCCCCC[C@@](C)(N)C(=O)O; S5 = C=CCCC[C@](C)(N)C(=O)O; Nle = CCCC[C@H](N)C(=O)O; Aib = CC(C)(N)C(=O)O
Experiments:
[1] = test system: P. aeruginosa; assay type: cell-based, Pseudomonas aeruginosa
Method in brief: (§1)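 Read-out is visible growth: the MIC is the lowest peptide concentration showing none after 20-24 hours at 37° C. Bacteria in refined (anion-exchanged) Mueller-Hinton broth were seeded at a final 5×10^5 CFU/ml onto water-based peptide serial dilutions.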

[2] = test system: E. coli; assay type: cell-based, Escherichia coli
Method in brief: as §1

[3] = test system: human red blood cells; assay type: cell-based; conditions: red cells of human, 1 h, 25
Method in brief: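 Washed human RBCs as 1% (v/v) suspension in phosphate-buffered saline incubated 1 h at 37° C with serially diluted peptides. Hemoglobin release in supernatant measured spectrophotometrically (570 nm), % hemolysis relative to untreated and 1% Triton-X100 controls; MHC defined as concentration giving less than 1% release.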

[4] = test system: S. aureus; assay type: cell-based, Staphylococcus aureus
Method in brief: as §1

[5] = test system: B. cereus; assay type: cell-based, Bacillus cereus
Method in brief: as §1

Row | Structure (SMILES) | MIC P. aeruginosa [1] | MIC E. coli [2] | % Hemolysis at 25 μg/ml [3] | MIC S. aureus [4] | MIC B. cereus [5]
1 | CCCC[C@H](NC(=O)[C@@H](NC(=O)[C@H](CCC(=O)O)NC(=O)CNC(=O)[C@@H](NC(=O)[C@]1(C)CCCC=CCCC[C@](C)(NC(=O)[C@H](CCCCN)NC(=O)[C@H](CCCCN)NC(=O)[C@H](C)NC(=O)[C@H](CO)NC(=O)[C@H](Cc2c[nH]cn2)NC(=O)[C@H](CC(C)C)NC(=O)[C@H](Cc2ccccc2)NC(=O)[C@H](CCCCN)NC(=O)CNC(=O)[C@@H](NC(=O)CN)[C@@H](C)CC)C(=O)NCC(=O)N[C@@H](CCCCN)C(=O)N[C@@H](C)C(=O)N1)C(C)C)[C@@H](C)CC)C(=O)N[C@@H](CC(N)=O)C(=O)N[C@@H](CO)C(N)=O [Mag(i + 4)11] (H-GIGKFLHSAKK[S5]GKA[S5]VGEI[Nle]NS-NH2; staple 12-16) | 6.2 µg/mL | 3.1 µg/mL | 17.5% | 12.5 µg/mL | 6.2 µg/mL
2 | CCCC[C@H](NC(=O)[C@]1(C)CCCC=CCCC[C@](C)(NC(=O)[C@H](C)NC(=O)[C@H](CCCCN)NC(=O)CNC(=O)[C@H](Cc2ccccc2)NC(=O)[C@H](CCCCN)NC(=O)[C@H](CCCCN)NC(=O)[C@H](C)NC(=O)[C@H](CO)NC(=O)[C@H](Cc2c[nH]cn2)NC(=O)[C@H](CC(C)C)NC(=O)[C@H](Cc2ccccc2)NC(=O)[C@H](CCCCN)NC(=O)CNC(=O)[C@@H](NC(=O)[C@@H](N)CCC(=O)O)[C@@H](C)CC)C(=O)N[C@@H](C(C)C)C(=O)NCC(=O)N[C@@H](CCC(=O)O)C(=O)N1)C(=O)N[C@@H](CC(N)=O)C(=O)N[C@@H](CO)C(N)=O [Mag(i + 4)15(G1E), EIGKFLHSAKKFGKAXVGEXBNS] (H-EIGKFLHSAKKFGKA[S5]VGE[S5][Nle]NS-NH2; staple 16-20) | 50 µg/mL | 12.5 µg/mL | 4.1% | >50 µg/mL | >50 µg/mL
3 | CCCC[C@H](NC(=O)[C@@H](NC(=O)[C@H](CCC(=O)O)NC(=O)CNC(=O)[C@@H](NC(=O)[C@H](Cc1ccccc1)NC(=O)[C@H](C)NC(=O)[C@H](CCCCN)NC(=O)CNC(=O)[C@]1(C)CCCC=CCCCCCC[C@@](C)(NC(=O)[C@H](CCCCN)NC(=O)CNC(=O)[C@@H](NC(=O)CN)[C@@H](C)CC)C(=O)N[C@@H](CC(C)C)C(=O)N[C@@H](Cc2c[nH]cn2)C(=O)N[C@@H](CO)C(=O)N[C@@H](C)C(=O)N[C@@H](CCCCN)C(=O)N[C@@H](CCCCN)C(=O)N1)C(C)C)[C@@H](C)CC)C(=O)N[C@@H](CC(N)=O)C(=O)N[C@@H](CO)C(N)=O [Mag(i + 7)4] (H-GIGK[R8]LHSAKK[S5]GKAFVGEI[Nle]NS-NH2; staple 5-12 (inferred); N-terminus and C-terminus assumed) | 3.1 µg/mL | 1.6 µg/mL | 42.6% | 25 µg/mL | 6.2 µg/mL
4 | CCCC[C@H](NC(=O)[C@]1(C)CCCC=CCCC[C@](C)(NC(=O)[C@H](C)NC(=O)[C@H](CCCCN)NC(=O)CNC(=O)[C@H](Cc2ccccc2)NC(=O)[C@H](CCCCN)NC(=O)[C@H](CCCCN)NC(=O)[C@H](C)NC(=O)[C@H](CO)NC(=O)[C@H](Cc2c[nH]cn2)NC(=O)[C@H](CC(C)C)NC(=O)[C@H](Cc2ccccc2)NC(=O)[C@H](CCCCN)NC(=O)CNC(=O)[C@@H](NC(=O)CN)[C@@H](C)CC)C(=O)N[C@@H](C(C)C)C(=O)NCC(=O)N[C@@H](CCC(=O)O)C(=O)N1)C(=O)N[C@@H](CC(N)=O)C(=O)N[C@@H](CO)C(N)=O [Mag(i + 4)15] (H-GIGKFLHSAKKFGKA[S5]VGE[S5][Nle]NS-NH2; staple 16-20) | 6.2 µg/mL | 1.6 µg/mL | 11.9% | 12.5 µg/mL | 6.2 µg/mL
5 | CCCC[C@H](NC(=O)[C@]1(C)CCCC=CCCC[C@](C)(NC(=O)[C@H](C)NC(=O)[C@H](CCC(=O)O)NC(=O)CNC(=O)[C@H](Cc2ccccc2)NC(=O)[C@H](CCCCN)NC(=O)[C@H](CCCCN)NC(=O)[C@H](C)NC(=O)[C@H](CO)NC(=O)[C@H](Cc2c[nH]cn2)NC(=O)[C@H](CC(C)C)NC(=O)[C@H](Cc2ccccc2)NC(=O)[C@H](CCCCN)NC(=O)CNC(=O)[C@@H](NC(=O)CN)[C@@H](C)CC)C(=O)N[C@@H](C(C)C)C(=O)NCC(=O)N[C@@H](CCC(=O)O)C(=O)N1)C(=O)N[C@@H](CC(N)=O)C(=O)N[C@@H](CO)C(N)=O [Mag(i + 4)15(E14E), GIGKFLHSAKKFGEAXVGEXBNS] (H-GIGKFLHSAKKFGEA[S5]VGE[S5][Nle]NS-NH2; staple 16-20) | >50 µg/mL | 12.5 µg/mL | 3.3% | >50 µg/mL | 50 µg/mL
6 | CCCC[C@H](NC(=O)[C@]1(C)CCCC=CCCC[C@](C)(NC(=O)[C@H](C)NC(=O)[C@H](CCCCN)NC(=O)CNC(=O)[C@H](Cc2ccccc2)NC(=O)[C@H](CCCCN)NC(=O)[C@H](CCCCN)NC(=O)[C@H](C)NC(=O)[C@H](CO)NC(=O)[C@H](Cc2c[nH]cn2)NC(=O)[C@H](CC(C)C)NC(=O)[C@H](Cc2ccccc2)NC(=O)[C@H](CCCCN)NC(=O)CNC(=O)[C@@H](NC(=O)CN)[C@@H](C)CC)C(=O)N[C@@H](C(C)C)C(=O)NCC(=O)N[C@@H](CCCCN)C(=O)N1)C(=O)N[C@@H](CC(N)=O)C(=O)N[C@@H](CO)C(N)=O [Mag(i + 4)15(E19K), GIGKFLHSAKKFGKAXVGKXBNS] (H-GIGKFLHSAKKFGKA[S5]VGK[S5][Nle]NS-NH2; staple 16-20) | 3.1 µg/mL | 1.6 µg/mL | 7.1% | 12.5 µg/mL | 6.2 µg/mL
7 | CCCC[C@H](NC(=O)[C@]1(C)CCCC=CCCC[C@](C)(NC(=O)[C@H](C)NC(=O)[C@H](CCCCN)NC(=O)C(C)(C)NC(=O)[C@H](Cc2ccccc2)NC(=O)[C@H](CCCCN)NC(=O)[C@H](CCCCN)NC(=O)[C@H](C)NC(=O)[C@H](CO)NC(=O)[C@H](Cc2c[nH]cn2)NC(=O)[C@H](CC(C)C)NC(=O)[C@H](Cc2ccccc2)NC(=O)[C@H](CCCCN)NC(=O)CNC(=O)[C@@H](NC(=O)CN)[C@@H](C)CC)C(=O)N[C@@H](C(C)C)C(=O)NCC(=O)N[C@@H](CCC(=O)O)C(=O)N1)C(=O)N[C@@H](CC(N)=O)C(=O)N[C@@H](CO)C(N)=O [Mag(i + 4)15(G13!), GIGKFLHSAKKF!KAXVGEXBNS] (H-GIGKFLHSAKKF[Aib]KA[S5]VGE[S5][Nle]NS-NH2; staple 16-20) | 3.1 µg/mL | 1.6 µg/mL | 71.5% | 3.1 µg/mL | 3.1 µg/mL
8 | CCCC[C@H](NC(=O)[C@@H](NC(=O)[C@H](CCC(=O)O)NC(=O)CNC(=O)[C@]1(C)CCCC=CCCC[C@](C)(NC(=O)[C@H](Cc2ccccc2)NC(=O)[C@H](CCCCN)NC(=O)[C@H](CCCCN)NC(=O)[C@H](C)NC(=O)[C@H](CO)NC(=O)[C@H](Cc2c[nH]cn2)NC(=O)[C@H](CC(C)C)NC(=O)[C@H](Cc2ccccc2)NC(=O)[C@H](CCCCN)NC(=O)CNC(=O)[C@@H](NC(=O)CN)[C@@H](C)CC)C(=O)N[C@@H](CCCCN)C(=O)N[C@@H](C)C(=O)N[C@@H](Cc2ccccc2)C(=O)N1)[C@@H](C)CC)C(=O)N[C@@H](CC(N)=O)C(=O)N[C@@H](CO)C(N)=O [Mag(i + 4)12] (H-GIGKFLHSAKKF[S5]KAF[S5]GEI[Nle]NS-NH2; staple 13-17) | 3.1 µg/mL | 3.1 µg/mL | 76.8% | 6.2 µg/mL | 3.1 µg/mL
9 | CCCC[C@H](NC(=O)[C@]1(C)CCCC=CCCC[C@](C)(NC(=O)[C@H](C)NC(=O)[C@H](CCCCN)NC(=O)CNC(=O)[C@H](Cc2ccccc2)NC(=O)[C@H](CCCCN)NC(=O)[C@H](CCCCN)NC(=O)[C@H](CCCCN)NC(=O)[C@H](CO)NC(=O)[C@]2(C)CCCC=CCCC[C@](C)(NC(=O)[C@H](CCCCN)NC(=O)CN)C(=O)N[C@@H](CCCCN)C(=O)N[C@@H](Cc3ccccc3)C(=O)N[C@@H](CC(C)C)C(=O)N2)C(=O)N[C@@H](C(C)C)C(=O)N[C@@H](Cc2c[nH]cn2)C(=O)N[C@@H](CCC(=O)O)C(=O)N1)C(=O)N[C@@H](CC(N)=O)C(=O)N[C@@H](CO)C(N)=O [Mag(i + 4)2, 15(I2K, A9K, G18H)] (H-GK[S5]KFL[S5]SKKKFGKA[S5]VHE[S5][Nle]NS-NH2; staple 3-7, 16-20) | 3.1 µg/mL | 3.1 µg/mL | 2.2% | 25 µg/mL | 12.5 µg/mL
